For five molecules, Ki and IC50 results are on record in patent US8729074B2, “Inhibitors of PI3 kinase” (Amgen Inc., priority 2009, dated 2014).

The target of assay [1] is T1, PI3Kα (Homo sapiens (Human), UniProt P42336). Kind of assay: In vitro PI3K AlphaScreen assay. In kind it is biochemical. The conditions noted are these: average if run more than once. As for the experimental part: In Vitro PI3K AlphaScreen® Assay
The PI3K AlphaScreen® assay (PerkinElmer, Waltham, Mass.) measures the activity of a panel of four phosphoinositide 3-kinases: PI3Kα, PI3Kβ, PI3Kγ, and PI3Kδ. Each of these enzymes phosphorylates the 3′-hydroxyl group on phosphatidylinositiol (4,5)-bisphosphate (PIP2) to produce phosphatidylinositol (3,4,5)-trisphosphate (PIP3). This phosphorylation activity is measured using a GST-tagged PIP3 binding protein (Echelon Biosciences, Salt Lake City, Utah), an anti-GST-tagged Acceptor bead, and streptavidin-Donor bead. […] In the absence of this interaction, proximity of the Donor and Acceptor beads is decreased, producing a loss of luminescent signal which is inversely proportional to PI3K activity.
The enzyme reaction buffer is made using sterile water (Baxter, Deerfield, Ill.) and 50 mM Tris HCl pH 7, 14 mM MgCl2, 2 mM sodium cholate, and 100 mM NaCl. 2 mM DTT is added fresh the day of the experiment. The AlphaScreen® reaction buffer is made using sterile water and 10 mM Tris HCl pH 7.5, 150 mM NaCl, 0.10% Tween 20, and 30 mM EDTA. 1 mM DTT is added fresh the day of the experiment.
The source plates for this assay are 384-well Greiner clear polypropylene plates containing test compounds at 5 mM and diluted 1:2 over 22 points. Columns 23 and 24 contain only DMSO as these are designated for positive and negative controls. Source plates are replicated into 384-well Optiplates (PerkinElmer, Waltham, Mass.), 0.5 μL/well, to make assay-ready plates.
The different PI3K isoforms are each diluted in enzyme reaction buffer to 2× working solutions. […] Two different 2× substrate solutions are made in enzyme reaction buffer. In one solution, PI(4,5)P2 (Echelon Biosciences, Salt Lake City, Utah) is diluted to 10 μM and ATP is diluted to 20 μM. This solution is used in the assays testing PI3Kα and PI3Kβ. In a second solution, PI(4,5)P2 is diluted to 10 μM and ATP is diluted to 8 μM. This solution is used in the assays testing PI3Kγ and PI3Kδ.
The AlphaScreen® reaction solutions are made using beads from the anti-GST AlphaScreen® kit (PerkinElmer, Waltham, Mass.). Two solutions are made in Alphascreen reaction buffer to 4× working concentrations. In one solution, biotinylated-IP4 (Echelon Biosciences, Salt Lake City, Utah) is diluted to 40 nM and streptavadin-Donor Beads are diluted to 80 μg/mL. In the second solution, PIP3-binding protein (Echelon Biosciences, Salt Lake City, Utah) is diluted to 40 nM and anti-GST-Acceptor Beads are diluted to 80 μg/mL. 10 μL/well of enzyme reaction buffer is added to Column 24 of the assay ready plates in place of enzyme. This is done for plates in the PI3Kα, β, and δ assays.
Using a 384-well dispensing Multidrop (Titertek, Huntsville, Ala.), 10 μL/well of 2× enzyme (PI3Kα, β, δ) is added to Columns 1-23 of the appropriate assay ready plates (for PI3Kγ 10 μL is added to Columns 1-24). 10 μL/well of the appropriate substrate solution (the solution with 20 μM ATP for PI3Kα and β assays, and the solution with […] for PI3Kγ and δ assays) is then added to Columns 1-24 of the plates. Plates are then incubated at room temperature for 20 minutes.
In the dark, 10 μL/well of the Donor Bead solution is added to Columns 1-24 of the plates to quench the enzyme reaction. The plates are incubated at room temperature for 30 minutes. Still in the dark, 10 μL/well of the Acceptor Bead solution is also added to Columns 1-24 of the plates. The plates are then incubated in the dark for 1.5 hours. The plates are read on an Envision Multilabel Plate Reader (PerkinElmer, Waltham, Mass.) with a 680 nm excitation filter and a 520-620 nm emission filter.
Activity data for the compounds tested in the assay is provided in Table 1 under the column heading PI3Kα AlphaScreen®.
(In general: Bead proximity is the source of the signal in Alpha formats.)

Assay [2] has as its target T1, PI3Kα. In words: In vitro PI3 kinase enzyme assay (PI3K ATPLoss). In kind it is biochemical. The conditions noted are these: average if run more than once. As for the experimental part:
Recombinant Expression of PI3K Enzymes
Full length p110 subunits of PI3K α, β and δ, N-terminally labeled with polyHis tag, can be co-expressed with p85 with Baculo virus expression vectors in sf9 insect cells. P110/p85 heterodimers can be purified by sequential Ni-NTA, Q-HP, Superdex-100 chromatography. Purified α, β and δ isozymes can be stored at −20° C. in 20 mM Tris, pH 8, 0.2M NaCl, 50% glycerol, 5 mM DTT, 2 mM Na cholate. […] The γ isozyme can be purified by sequential Ni-NTA, Superdex-200, Q-HP chromatography. The γ isozyme can be stored frozen at −80° C. in NaH2PO4, pH 8, 0.2M NaCl, 1% ethylene glycol, 2 mM β-mercaptoethanol.
In Vitro PI3 Kinase Enzyme Assays (PI3K ATPLoss)
PI3K enzyme assays (alpha, beta, delta and gamma) can be performed in 25 μL with the above final concentrations of components in white polyproplyene plates. Phosphatidyl inositol phosphoacceptor, PtdIns(4,5)P2 (e.g., P4508) can be obtained from Echelon Biosciences, Salt Lake City, Utah. […] Test compounds can be dissolved in DMSO and diluted with three-fold serial dilutions. The compound in DMSO (1 μL) may be added per test well, and the inhibition relative to reactions containing no compound, with and without enzyme can be determined. After assay incubation at RT, the reaction can be stopped and residual ATP can be determined by addition of an equal volume of a commercial ATP bioluminescence kit (Perkin Elmer EasyLite, Perkin Elmer, Waltham, Mass.) according to the manufacturer's instructions, and detected using an Analyst GT luminometer.

The test system of assay [3] is phosphorylation of Akt at Serine 473 in U87 MG cells. In words: pAkt AlphaScreen (U87 cell). In kind it is cell-based. The conditions noted are these: Homo sapiens, U-87 MG, 2 h; pAkt Ser473, U87 MG cells, compound two hours; average if run more than once. As for the experimental part:
pAkt AlphaScreen (U87 Cell)
The pAkt AlphaScreen® assay (PerkinElmer, Waltham, Mass.) determines whether there is phosphorylation of Akt at Serine 473 by recruitment of a phosphospecific antibody. This assay was performed using U87 MG cells. The U87 growth media consists of MEM (Gibco, Carlsbad, Calif.) supplemented with 10% FBS (Gibco), 1× Non-Essential Amino Acids (Gibco) and 1× Penicillin/Streptomycin/Glutamine (Gibco). The cells were maintained weekly using 0.05% Trypsin (Gibco) and replated in 150 mm TC—Treated Culture Dishes (Corning, Corning, N.Y.).
The first day of the assay, the adherent cells were trypsinized, media was added to the loose cells and cells were mixed to a homogenous mixture. 0.5 ml of the homogenous mixture was counted on the Beckman Coulter® Vi-CELL™ XR (Fullerton, Calif.). 50 frames of cells were counted and the number of viable cells was determined. The cells were then diluted to 0.25 million cells per ml, and centrifuged at 200 rcf for 5 minutes. The media was removed and the cells were reconstituted in fresh media for plating. The cells were plated at 20 μl per well on the PerkinElmer® Flexprop PLUS in Low Volume 384 Well White Tissue Culture Plates (Corning) with a final cell density of 5K cells per well. The plates were incubated overnight at 37° Celsius, 5% CO2.
On the second day, the compound plates were prepared, the cells were treated with compound and the pAkt reaction mix was added to the cell lysate. 384 well compound plates were prepared containing 1 μl of compound per well starting at 5 mM and diluted 1:2 across the row, resulting in a 22 well serial dilution. 39 μl of growth media was added to the compound plate in rows 1-22 using the PerkinElmer® Flexprop PLUS resulting in a DMSO concentration of 2.5%. The cell plates and diluted compound plates were put onto the VELOCITY11™ VPREP™ 384 ST where the compound plate was mixed and 5 μl of serially diluted compound or controls was added to the cell plate. The final concentration of the compounds was 25 μM serially diluted to 11.9 pM in 0.5% DMSO. The cell plates were then incubated with compound for two hours at 37° Celsius, 5% CO2. After two hours, the media in the cell plates was aspirated using the BioTek® ELx405HT plate washer (Winooski, Vt.) removing the majority of media and compound without disturbing the adherent U87 cells. The following assay reagents are components of the SureFire® Akt (Ser 473) Phosphorylation 50K Point Kit (TGR BioSciences, Adelaide, Australia) and an IgG Detection Kit (PerkinElmer, Waltham, Mass.). 5 μl of 1× Lysis Buffer was added to each well using the PerkinElmer® Flexprop PLUS. The plates were then incubated at room temperature on a shaker for ten minutes. The AlphaScreen® reaction was prepared under low light conditions (subdued or green light) including p-Akt (Ser 473) Reaction Buffer, Dilution Buffer, Activation Buffer, Acceptor Beads and Donor Beads at a ratio of 40:20:10:1:1 respectively. The AlphaScreen® reaction was added to the cell lysate at 6 μl per well using the PerkinElmer® Flexprop PLUS. The plates were placed in a humid environment to reduce edge effects and incubated overnight at room temperature with restricted air flow in the dark.
On the final day of the experiment, the plates were read on the PerkinElmer® EnVision™ 2103 Multilable Reader using the standard AlphaScreen® readout. The POC is calculated and the data is analyzed to report the IC50 IP for pAkt at Serine 473.
Activity data for the compounds tested in the PI3K cell based Akt assay is provided in Table 1 under the column heading U87

Assay [4] addresses mTOR (Homo sapiens (Human), UniProt P42345). In words: In vitro mTOR Lanthascreen assay. In kind it is biochemical. The conditions noted are these: average if run more than once. From the text: The Invitrogen (Carlsbad, Calif.) mammalian target of rapamycin (mTOR) Lanthascreen assay can be used to quantitate mTOR kinase activity in an in vitro setting. Active mTOR phosphorylates eukaryotic translation initiation factor 4E binding protein 1 (4E-BP1) on residue threonine 46. This phosphorylation event can be detected with a phospho-specific terbium (Tb) labeled Ab, in turn bringing the Tb label in close proximity to the GFP tagged 4E-BP 1 and allowing for time-resolved fluorescence resonance energy transfer (TR-FRET), which correlates 4E-BP1 phosphorylation levels with mTOR kinase activity.
Enzyme reaction buffer can be prepared in deionized water containing 50 mM HEPES (pH 7.5), 0.01% Polysorbate 20, 1 mM EGTA, and 10 mM MnCl2.
Dilutions of the compound to be tested can be prepared in 96-well polypropylene plates (Fisher Scientific, Waltham, Mass.). One row represents a 10-point dose of compound diluted 1:3 in enzyme reaction buffer and 20% dimethyl sulfoxide (DMSO). The top concentration for all compounds is 36 μM. Wells 6 and 12 can serve as the no compound (DMSO only) and high compound controls.
An mTOR substrate solution can prepared in enzyme reaction buffer containing 1600 nM green fluorescent protein tagged eukaryotic translation initiation factor 4E binding protein 1 (GFP-4E-BP1) (Invitrogen, Carlsbad, Calif.) and 28 uM adenosine triphosphate (ATP) (Calbiochem, Gibbstown, N.J.).
mTOR enzyme (Invitrogen, Carlsbad, Calif.) can be diluted in enzyme reaction buffer to a working concentration of 100 ng/mL.
The enzyme assay can be run in 384 well low volume assay plates (Corning, Corning, N.Y.). 2.5 uL of substrate solution containing GFP-4E-BP1 and ATP can be added to appropriate wells in the assay plate followed by 2.5 μL of compound dilutions. 5 μL of appropriately diluted mTOR enzyme can be added and the reaction allowed to proceed for 1 hour at room temperature. Final reagent concentrations in the enzyme assay are 50 ng/mL mTOR, 400 nM GFP-4E-BP1, and 7 μM ATP.
The enzyme assay can be terminated upon the addition of 10 μL of 20 mM EDTA and 4 nM Tb-labeled anti-phospho-4E-BP1 [T46] antibody (Invitrogen, Carlsbad, Calif.). The assay plate can then be incubated at room temperature for 1 hour and results read on a Tecan Safire II plate reader (Tecan, Männedorf, Switzerland).
(TR-FRET usually uses a lanthanide donor and a delayed reading to cut background.)

T1 sequence (P42336 whole entry): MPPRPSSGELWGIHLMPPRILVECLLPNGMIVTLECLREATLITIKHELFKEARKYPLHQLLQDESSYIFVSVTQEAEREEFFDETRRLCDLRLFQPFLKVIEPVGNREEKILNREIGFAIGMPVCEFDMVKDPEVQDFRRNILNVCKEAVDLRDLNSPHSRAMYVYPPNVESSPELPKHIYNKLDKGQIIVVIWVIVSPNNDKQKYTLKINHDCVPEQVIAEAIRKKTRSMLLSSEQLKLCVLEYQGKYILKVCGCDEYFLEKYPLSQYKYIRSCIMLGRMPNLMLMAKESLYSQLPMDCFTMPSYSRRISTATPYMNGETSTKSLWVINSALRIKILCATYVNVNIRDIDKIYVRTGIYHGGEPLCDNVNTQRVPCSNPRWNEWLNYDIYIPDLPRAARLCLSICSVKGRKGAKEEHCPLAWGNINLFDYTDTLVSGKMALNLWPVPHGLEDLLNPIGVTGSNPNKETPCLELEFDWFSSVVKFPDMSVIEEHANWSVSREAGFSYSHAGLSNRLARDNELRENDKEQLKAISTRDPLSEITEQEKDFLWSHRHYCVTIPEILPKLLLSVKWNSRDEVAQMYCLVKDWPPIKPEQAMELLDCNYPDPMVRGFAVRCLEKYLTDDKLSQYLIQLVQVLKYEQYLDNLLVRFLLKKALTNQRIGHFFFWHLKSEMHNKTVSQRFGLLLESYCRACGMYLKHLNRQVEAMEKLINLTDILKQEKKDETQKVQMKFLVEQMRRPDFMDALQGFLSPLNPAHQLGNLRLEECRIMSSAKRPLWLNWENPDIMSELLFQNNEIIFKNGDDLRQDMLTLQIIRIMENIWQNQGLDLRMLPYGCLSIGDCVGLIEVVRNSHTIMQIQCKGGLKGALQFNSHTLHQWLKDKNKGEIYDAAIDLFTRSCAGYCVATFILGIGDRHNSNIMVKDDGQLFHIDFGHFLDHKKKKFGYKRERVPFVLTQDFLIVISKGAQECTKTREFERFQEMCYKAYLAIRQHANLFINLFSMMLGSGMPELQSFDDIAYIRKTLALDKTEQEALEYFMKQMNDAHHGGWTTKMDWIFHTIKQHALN
T1 sequence (P27986 whole entry partner): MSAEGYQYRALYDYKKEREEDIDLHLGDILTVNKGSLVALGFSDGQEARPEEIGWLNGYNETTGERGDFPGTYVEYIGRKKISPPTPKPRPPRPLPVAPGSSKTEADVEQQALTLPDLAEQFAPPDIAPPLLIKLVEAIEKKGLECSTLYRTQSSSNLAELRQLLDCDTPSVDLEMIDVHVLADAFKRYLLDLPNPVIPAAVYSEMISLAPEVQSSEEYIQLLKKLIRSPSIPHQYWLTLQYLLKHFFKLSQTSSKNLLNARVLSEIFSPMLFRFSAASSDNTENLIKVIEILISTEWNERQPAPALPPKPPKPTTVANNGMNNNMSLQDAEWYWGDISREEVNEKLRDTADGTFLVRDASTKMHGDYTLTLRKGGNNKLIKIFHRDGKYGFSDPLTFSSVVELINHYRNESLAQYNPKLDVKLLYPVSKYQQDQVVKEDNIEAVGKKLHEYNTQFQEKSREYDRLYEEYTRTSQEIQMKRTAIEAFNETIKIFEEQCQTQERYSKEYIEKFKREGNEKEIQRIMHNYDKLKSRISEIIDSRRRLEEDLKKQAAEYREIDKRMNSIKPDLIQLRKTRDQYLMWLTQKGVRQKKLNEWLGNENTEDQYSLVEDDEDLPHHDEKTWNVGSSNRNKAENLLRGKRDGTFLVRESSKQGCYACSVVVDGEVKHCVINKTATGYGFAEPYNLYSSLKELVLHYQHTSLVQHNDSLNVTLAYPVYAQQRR
mTOR, sequence (P42345 1360-2549): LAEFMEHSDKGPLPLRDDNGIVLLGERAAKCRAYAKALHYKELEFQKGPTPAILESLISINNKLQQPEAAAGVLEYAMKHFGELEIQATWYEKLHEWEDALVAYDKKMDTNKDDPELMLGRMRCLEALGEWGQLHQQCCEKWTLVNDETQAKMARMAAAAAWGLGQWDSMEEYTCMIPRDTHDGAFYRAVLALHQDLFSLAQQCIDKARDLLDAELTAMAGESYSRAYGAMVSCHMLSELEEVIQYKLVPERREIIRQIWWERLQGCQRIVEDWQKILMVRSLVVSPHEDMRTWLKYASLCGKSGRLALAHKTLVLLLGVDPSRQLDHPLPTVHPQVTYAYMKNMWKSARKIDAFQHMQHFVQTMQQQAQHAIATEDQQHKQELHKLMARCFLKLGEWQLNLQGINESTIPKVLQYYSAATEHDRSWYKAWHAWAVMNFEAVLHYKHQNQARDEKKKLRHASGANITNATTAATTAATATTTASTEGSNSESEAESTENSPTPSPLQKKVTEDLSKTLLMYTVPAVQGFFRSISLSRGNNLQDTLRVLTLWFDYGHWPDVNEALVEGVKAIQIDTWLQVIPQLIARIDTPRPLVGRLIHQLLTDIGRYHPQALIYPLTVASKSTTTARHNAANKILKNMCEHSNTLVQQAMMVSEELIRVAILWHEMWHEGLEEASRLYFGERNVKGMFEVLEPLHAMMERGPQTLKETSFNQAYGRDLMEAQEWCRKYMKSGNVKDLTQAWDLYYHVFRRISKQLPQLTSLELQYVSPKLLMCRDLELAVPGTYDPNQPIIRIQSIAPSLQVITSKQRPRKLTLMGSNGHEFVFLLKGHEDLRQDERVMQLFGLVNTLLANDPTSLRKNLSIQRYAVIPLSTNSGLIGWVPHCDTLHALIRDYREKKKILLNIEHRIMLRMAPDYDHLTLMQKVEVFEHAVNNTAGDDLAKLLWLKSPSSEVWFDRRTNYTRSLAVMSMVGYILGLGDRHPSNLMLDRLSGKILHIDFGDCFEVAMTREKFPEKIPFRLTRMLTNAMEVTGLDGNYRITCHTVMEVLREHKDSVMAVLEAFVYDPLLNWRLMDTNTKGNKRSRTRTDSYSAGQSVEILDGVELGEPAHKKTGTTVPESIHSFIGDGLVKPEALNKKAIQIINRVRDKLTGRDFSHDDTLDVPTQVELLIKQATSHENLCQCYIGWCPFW

Usually Ki stands for a dissociation constant, usually derived from enzyme kinetics or from competition with a known ligand. Low readings indicate a stronger hold on the target, high ones a looser hold on the target. As a reminder, the IC50 is the concentration at which inhibition is half-maximal. Lower therefore signals inhibition by little substance. `O=S(=O)(Nc1cncc(-c2cnc3ccccn23)c1)c1ccc(F)cc1` [Example 2, 4-Fluoro-N-(5-imidazo[1,2-a]pyridin-3-yl-3-pyridinyl)benzenesulfonamide] showed an inhibition constant (Ki) in assay [1] of 1290 nM. Besides, in assay [2], the 50% inhibitory concentration (IC50) is 931 nM.

Molecule `COc1cc(-c2cnc3ccc(N4C(=O)OC[C@H]4Cc4ccccc4)cn23)cnc1OC` [Example 14, (4R)-4-Benzyl-3-(3-(5,6-dimethoxy-3-pyridinyl)imidazo[1,2-a]pyridin-6-yl)-1,3-oxazolidin-2-one] displayed a Ki in assay [1] of 268 nM. For the same molecule, it took 6970 nM to reach half-maximal inhibition in assay [3] (IC50).

In turn, `COc1cc(-c2cnc3ccc(N4C(=O)OC[C@@H]4Cc4ccccc4)cn23)cnc1OC` [Example 15, (4S)-4-Benzyl-3-(3-(5,6-dimethoxy-3-pyridinyl)imidazo[1,2-a]pyridin-6-yl)-1,3-oxazolidin-2-one] returned a Ki in assay [1] of 286 nM. In assay [3], this molecule gave an IC50 of 6620 nM.

Regarding `O=c1n(Cc2ccccc2)ccc2ncc(-c3cnc(Cl)c(NS(=O)(=O)c4ccc(F)cc4)c3)n12` [Example 17, N-(5-(6-Benzyl-5-oxo-5,6-dihydroimidazo[1,2-c]pyrimidin-3-yl)-2-chloropyridin-3-yl)-4-fluorobenzenesulfonamide], the inhibitory constant (Ki) in assay [1] was found to be 465 nM. Besides, the IC50 in assay [4] was 180 nM.

In assay [1], `O=S(=O)(Nc1cc(-c2cnc3ncccn23)cnc1Cl)c1ccc(F)cc1` [Example 24, N-(2-Chloro-5-(imidazo[1,2-a]pyrimidin-3-yl)pyridin-3-yl)-4-fluorobenzenesulfonamide] yielded an inhibition constant (Ki) of 378 nM. Besides, the concentration for half-maximal inhibition (IC50) is 781 nM in assay [2] and over 50000 nM in assay [4].
